This is an account of results in PMC9469097 (Frontiers in Pharmacology, 2022).

A short description of series [1]: Tissue distribution of PTAs of Styrax in rats. The note with it: for exposure in rat plasma and rat liver: after single oral dose of Styrax (100 mg/kg).
Protocol: Nine Male Sprague-Dawley rats (250–300 g) were purchased from Shanghai Sippe-Bk Lab Animal Co., Ltd. (Shanghai, China) and were fed in Experimental Animal Center of SHUTCM. […] The rats were fasted overnight before dosing but were free to drink water. Nine rats were randomly divided into three groups (1, 2, and 4 h). […] Blood samples were collected from the abdominal aorta, and the tissues (including the liver, duodenum, jejunum, ileum and colon) were removed rapidly and placed on ice. After then, the blood samples were centrifuged at 8,000 rpm, 4 °C for 10 min, and the supernatant was stored at −80 °C until analysis.
Firstly, each tissue (such as liver, duodenum, jejunum, ileum, colon) was accurately weighed after sucking the water on tissue surface. Each tissue was put into an EP tube and then cut (3-5 times) by a scissor. After then, PBS (pH 7.4) and magnetic beads were added into EP tube, grind the tissue by a tissue grinder. The tissue grinding fluid was centrifuged at 9,000 g, 4 °C for 20 min. 50 μl tissue supernatant was diluted by adding 250 μl LC grade acetonitrile. The protein was precipitated by centrifuging at 20,000 ×g, 4 °C for 30 min and the supernatant was collected to determine the protein concentration by a BCA Protein Quantification Kit. After then, the concentrations of seven PTAs were determined by using UHPLC-Q-Orbitrap HRMS analysis.
The nature of series [2]: Stability tests for target pentacyclic triterpenoid acids.
The target of the next series is CYP3A (Homo sapiens, UniProt P08684). The experiment in a line: CYP3A-catalyzed midazolam 1′-hydroxylation in HLMs. The series is classed as biochemical. The note with it: for IC50 at 30 min: human. The procedure: Following incubation for 30 min at 37 °C, and 200 μl ice-cold acetonitrile containing internal standard (IS, 90 ng/ml) was subsequently added to quench the oxidative reaction. The mixture was then centrifuged at 20,000 ×g, 4 °C for 20 min, and the supernatant was quantified by LC-MS/MS analysis as described in Supplementary Table S2.

The target of the next series is CYP3A4 (Homo sapiens, UniProt P08684). Description: CYP3A4-catalyzed NEN 4-hydroxylation in HLMs (fluorescence-based assay).
Series [3] in a line: Pharmacokinetic interaction between Styrax and midazolam (i.v. and i.g.) in rats. The note with it: for AUC(0-inf) / Cmax / half-life: male, Sprague-Dawley, rat, plasma; for half-life: t1/2, rats.
The mark [4] stands for this setting: iv, 5 mg/kg, rats, midazolam i.v. 5 mg/kg, pretreated with Soybean oil.
The mark [5] stands for this setting: iv, 5 mg/kg, rats, midazolam i.v. 5 mg/kg, pretreated with Styrax i.g. 100 mg/kg.
The mark [6] stands for this setting: po, 20 mg/kg, rats, midazolam i.g. 20 mg/kg, pretreated with Soybean oil.
The mark [7] stands for this setting: po, 20 mg/kg, rats, midazolam i.g. 20 mg/kg, pretreated with Styrax i.g. 100 mg/kg.
Setting [8] is: rats, midazolam i.g. 20 mg/kg, Styrax + midazolam vs Soybean oil + midazolam (fold).
Setting [9] is: rats, midazolam i.v. 5 mg/kg, Styrax + midazolam vs Soybean oil + midazolam.

Like-named read-outs stand apart in the source and are kept apart here.

Sequence of CYP3A (P08684 2-503): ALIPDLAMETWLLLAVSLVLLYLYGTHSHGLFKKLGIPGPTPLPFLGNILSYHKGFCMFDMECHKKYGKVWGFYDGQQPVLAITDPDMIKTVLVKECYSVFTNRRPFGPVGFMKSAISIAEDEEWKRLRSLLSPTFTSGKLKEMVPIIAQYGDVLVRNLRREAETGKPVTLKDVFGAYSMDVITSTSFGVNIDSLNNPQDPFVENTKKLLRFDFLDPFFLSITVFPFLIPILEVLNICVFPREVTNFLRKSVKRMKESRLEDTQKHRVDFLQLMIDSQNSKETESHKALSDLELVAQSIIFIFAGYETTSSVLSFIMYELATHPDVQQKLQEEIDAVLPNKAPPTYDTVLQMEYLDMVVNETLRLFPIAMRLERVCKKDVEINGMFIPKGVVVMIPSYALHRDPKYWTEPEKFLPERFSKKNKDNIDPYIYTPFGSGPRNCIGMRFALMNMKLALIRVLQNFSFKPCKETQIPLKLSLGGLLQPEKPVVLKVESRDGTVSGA
Sequence of CYP3A4 (P08684 whole entry): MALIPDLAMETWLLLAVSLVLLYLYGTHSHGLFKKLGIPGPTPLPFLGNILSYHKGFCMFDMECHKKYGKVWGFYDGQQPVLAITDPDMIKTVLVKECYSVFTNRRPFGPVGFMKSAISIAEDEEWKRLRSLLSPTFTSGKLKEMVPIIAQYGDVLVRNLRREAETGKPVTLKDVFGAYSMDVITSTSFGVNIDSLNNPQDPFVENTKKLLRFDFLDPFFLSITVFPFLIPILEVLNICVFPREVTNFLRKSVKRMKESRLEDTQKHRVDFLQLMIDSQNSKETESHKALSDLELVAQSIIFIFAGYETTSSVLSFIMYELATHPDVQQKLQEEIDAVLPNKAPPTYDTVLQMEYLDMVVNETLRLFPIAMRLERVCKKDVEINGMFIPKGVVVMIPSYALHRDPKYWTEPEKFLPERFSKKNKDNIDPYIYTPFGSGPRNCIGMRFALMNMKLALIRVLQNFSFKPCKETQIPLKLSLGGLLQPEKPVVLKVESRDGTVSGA
Protocol for CYP3A4: In brief, PBS (pH 7.4, 100 mM), herbal medicines (100 μg/ml, final concentration)/PTAs/solvent, NEN, G-6-P, G-6-PDH, MgCl2, and HLMs were added to the 96-well plate in turn, then the samples were vortexed and pre-incubated for 3 min at 37 °C. The oxidative reactions were initiated by adding β-NADP^+ to yield a final volume of 200 μl, then the formation rates of NEHN (hydroxylated metabolite of NEN) were continuously monitored for 30 min at 37 °C using a 96-well fluorescence microplate reader (SpectraMax® iD3, Molecular Devices, Austria). The percentage of organic solvent in all incubation is not over 1%.

For orientation: IC50 means the midpoint of a concentration-inhibition curve. Regarding `C=C(C)[C@@H]1CC[C@]2(C(=O)O)CC[C@]3(C)[C@H](CC[C@@H]4[C@@]5(C)CC[C@H](O)C(C)(C)[C@@H]5CC[C@]43C)[C@@H]12` [betulinic acid], in series [1], the “exposure in rat plasma and rat liver” value is given as “could not be detected”. In addition, in series [2] (nominal level 3.28 nmol/L), the “Stability, 4 ℃ Refrigerator (3 day, %)” value came to 100.20%; the “Stability, -20℃ freeze-thaw (3 times, %)” value was 104.81%; the “Stability, Room temperature (24 h, %)” value was determined as 98.14%. In series [2] (nominal level 20.48 nmol/L), the “Stability, 4 ℃ Refrigerator (3 day, %)” value was 102.78%; the “Stability, -20℃ freeze-thaw (3 times, %)” value is given as 99.04%; the “Stability, Room temperature (24 h, %)” value came out at 102.89%. Moreover, in series [2] (nominal level 128.00 nmol/L), the “Stability, 4 ℃ Refrigerator (3 day, %)” value turned out to be 102.12%; the “Stability, -20℃ freeze-thaw (3 times, %)” value stood at 110.33%; the “Stability, Room temperature (24 h, %)” value was 103.89%. On CYP3A (microsomes, pH 7.4), this compound came in with a 50% inhibitory concentration (IC50) at 30 min of 7.74 ± 0.95 µM. At CYP3A4, this compound had an IC50 of 4.11 ± 0.8 µM.
`C=C(C)[C@@H]1CC[C@]2(C(=O)O)CC[C@]3(C)[C@H](CC[C@@H]4[C@@]5(C)CCC(=O)C(C)(C)[C@@H]5CC[C@]43C)[C@@H]12` [betulonic acid]: the concentration for half-maximal inhibition (IC50) against CYP3A (midazolam 1′-hydroxylation, HLMs) amounted to 2.51 ± 0.34 µM; against CYP3A4 (NEN 4-hydroxylation, HLMs), 0.96 ± 0.14 µM.
In the case of `C[C@H]1[C@H](C)CC[C@]2(C(=O)O)CC[C@]3(C)C(=CC[C@@H]4[C@@]5(C)C[C@@H](O)[C@H](O)C(C)(C)[C@@H]5CC[C@]43C)[C@H]12` [corosolic acid], in series [2] (nominal level 8.19 nmol/L), the “Stability, 4 ℃ Refrigerator (3 day, %)” value was found to be 105.13%; the “Stability, -20℃ freeze-thaw (3 times, %)” value was found to be 104.46%; the “Stability, Room temperature (24 h, %)” value is listed as 99.78%. In series [2] (nominal level 51.20 nmol/L), the “Stability, 4 ℃ Refrigerator (3 day, %)” value came to 104.14%; the “Stability, -20℃ freeze-thaw (3 times, %)” value is on record as 100.45%; the “Stability, Room temperature (24 h, %)” value turned out to be 99.91%. In series [2] (nominal level 320.00 nmol/L), the “Stability, 4 ℃ Refrigerator (3 day, %)” value is recorded as 97.82%; the “Stability, -20℃ freeze-thaw (3 times, %)” value stood at 98.31%; the “Stability, Room temperature (24 h, %)” value came to 96.69%. Further, the IC50 at 30 min at CYP3A (human liver microsomes, pH 7.4, probe midazolam (1′-hydroxylation), midazolam 1′-hydroxylation, HLMs, read-out: IC50) turned out to be 32.2 ± 5.63 µM. At CYP3A4, this compound yielded an IC50 of 41.9 ± 11.7 µM.
`C=C(C)[C@@H]1CC[C@]2(C(=O)O)CC[C@]3(C)[C@H](CC[C@@H]4[C@@]5(C)CC[C@@H](O)C(C)(C)[C@@H]5CC[C@]43C)[C@@H]12` [epibetulinic acid]: in series [1], the “exposure in rat plasma and rat liver” value is “very low exposure levels”. In series [2] (nominal level 3.28 nmol/L), the “Stability, 4 ℃ Refrigerator (3 day, %)” value came out at 113.34%; the “Stability, -20℃ freeze-thaw (3 times, %)” value stood at 109.83%; the “Stability, Room temperature (24 h, %)” value was 104.88%. Besides, in series [2] (nominal level 20.48 nmol/L), the “Stability, 4 ℃ Refrigerator (3 day, %)” value worked out at 105.44%; the “Stability, -20℃ freeze-thaw (3 times, %)” value was found to be 106.94%; the “Stability, Room temperature (24 h, %)” value worked out at 96.59%. Also, in series [2] (nominal level 128.00 nmol/L), the “Stability, 4 ℃ Refrigerator (3 day, %)” value was 107.19%; the “Stability, -20℃ freeze-thaw (3 times, %)” value was determined as 110.52%; the “Stability, Room temperature (24 h, %)” value was 106.30%. For the same compound, the IC50 at 30 min at CYP3A (microsomes, pH 7.4) worked out at 0.64 ± 0.1 µM. Moreover, the IC50 against CYP3A4 was determined as 0.47 ± 0.08 µM.
Turning to `CC1(C)CC[C@]2(C(=O)O)CC[C@]3(C)C(=CC[C@@H]4[C@@]5(C)C[C@@H](O)[C@H](O)C(C)(C)[C@@H]5CC[C@]43C)[C@@H]2C1` [maslinic acid], the “exposure in rat plasma and rat liver” value in series [1] is recorded as “could not be detected”. For the same compound, in series [2] (nominal level 8.19 nmol/L), the “Stability, 4 ℃ Refrigerator (3 day, %)” value was determined as 101.20%; the “Stability, -20℃ freeze-thaw (3 times, %)” value is given as 100.54%; the “Stability, Room temperature (24 h, %)” value was 95.84%. Further, in series [2] (nominal level 51.20 nmol/L), the “Stability, 4 ℃ Refrigerator (3 day, %)” value was 103.76%; the “Stability, -20℃ freeze-thaw (3 times, %)” value came out at 100.05%; the “Stability, Room temperature (24 h, %)” value was 99.51%. Besides, in series [2] (nominal level 320.00 nmol/L), the “Stability, 4 ℃ Refrigerator (3 day, %)” value is recorded as 97.98%; the “Stability, -20℃ freeze-thaw (3 times, %)” value amounted to 98.47%; the “Stability, Room temperature (24 h, %)” value was 96.85%. On CYP3A (microsomes, pH 7.4), this compound displayed an IC50 at 30 min of 19.4 ± 3.04 µM. The compound also gave an IC50 against CYP3A4 of 3.44 ± 0.77 µM.
As usually defined, the AUC(0-inf) is the area under the concentration-time curve extrapolated to infinity. Usually Cmax stands for the highest concentration seen after dosing. One may read the half-life as the time needed for the level to fall by half in the phase considered. As for `Cc1ncc2n1-c1ccc(Cl)cc1C(c1ccccc1F)=NC2` [midazolam], the area under the curve AUC(0-inf) is 1320 ± 130 ng·h/mL in series [3] (setting [4]), 1200 ± 114 ng·h/mL in series [3] (setting [5]), 211 ± 87.2 ng·h/mL in series [3] (setting [6]) and 431 ± 217 ng·h/mL in series [3] (setting [7]). In addition, the maximum concentration (Cmax) in series [3] (setting [4]) stood at 3260 ± 708 ng/mL; in series [3] (setting [5]), 3370 ± 570 ng/mL; in series [3] (setting [6]), 129 ± 111 ng/mL; in series [3] (setting [7]), 294 ± 277 ng/mL. Moreover, the half-life is 0.52 ± 0.14 h in series [3] (iv, 5 mg/kg, midazolam i.v. 5 mg/kg, pretreated with Styrax i.g. 100 mg/kg); 2.14 ± 0.28 h in series [3] (po, 20 mg/kg, midazolam i.g. 20 mg/kg, pretreated with Soybean oil); 4.52 ± 3.96 h in series [3] (po, 20 mg/kg, midazolam i.g. 20 mg/kg, pretreated with Styrax i.g. 100 mg/kg). Besides, the “Tmax Ratio” value stood at 1.00 in series [3] (rats, midazolam i.g. 20 mg/kg, Styrax + midazolam vs Soybean oil + midazolam) and 1.00 in series [3] (setting [9]). The “AUC(0-inf) Ratio” value in series [3] (setting [8]) worked out at 2.04; in series [3] (setting [9]), 0.91. Besides, the entries for the “Cmax Ratio” value in series [3] (setting [8]) and in series [3] (setting [9]) were 2.28 and 1.03, respectively. Moreover, the “t1/2 Ratio” value in series [3] (setting [8]) was found to be 2.11; in series [3] (setting [9]), 0.59. Further, the t1/2 in series [3] (rats, midazolam i.v. 5 mg/kg, pretreated with Soybean oil) was found to be 0.88 ± 0.28 h.
On to `CC1(C)CC[C@]2(C(=O)O)CC[C@]3(C)C(=CC[C@@H]4[C@@]5(C)CC[C@H](O)C(C)(C)[C@@H]5CC[C@]43C)[C@@H]2C1` [oleanolic acid], for which, in series [1], the “exposure in rat plasma and rat liver” value is listed as “very low exposure levels”. Further, in series [2] (nominal level 3.28 nmol/L), the “Stability, 4 ℃ Refrigerator (3 day, %)” value came to 105.69%; the “Stability, -20℃ freeze-thaw (3 times, %)” value was found to be 103.79%; the “Stability, Room temperature (24 h, %)” value amounted to 103.28%. In series [2] (nominal level 20.48 nmol/L), the “Stability, 4 ℃ Refrigerator (3 day, %)” value is 102.19%; the “Stability, -20℃ freeze-thaw (3 times, %)” value is 105.51%; the “Stability, Room temperature (24 h, %)” value stood at 99.64%. Moreover, in series [2] (nominal level 128.00 nmol/L), the “Stability, 4 ℃ Refrigerator (3 day, %)” value was 104.96%; the “Stability, -20℃ freeze-thaw (3 times, %)” value amounted to 105.16%; the “Stability, Room temperature (24 h, %)” value was 99.00%. This compound also had a half-inhibitory concentration (IC50) at 30 min against CYP3A (microsomes, pH 7.4) of 14.8 ± 2.34 µM.
With `CC1(C)CC[C@]2(C(=O)O)CC[C@]3(C)C(=CC[C@@H]4[C@@]5(C)CCC(=O)C(C)(C)[C@@H]5CC[C@]43C)[C@@H]2C1` [oleanonic acid], the “local exposure to rat jejunum” value in series [1] (1 h after single oral dose of Styrax (100 mg/kg)) was 745.69 nM/mg tissue protein. Also, the “exposure in rat plasma and rat liver” value in series [1] is listed as “very low exposure levels”. Further, in series [2] (nominal level 3.28 nmol/L), the “Stability, 4 ℃ Refrigerator (3 day, %)” value was found to be 85.84%; the “Stability, -20℃ freeze-thaw (3 times, %)” value stood at 91.69%; the “Stability, Room temperature (24 h, %)” value is on record as 86.92%. Further, in series [2] (nominal level 20.48 nmol/L), the “Stability, 4 ℃ Refrigerator (3 day, %)” value was found to be 103.95%; the “Stability, -20℃ freeze-thaw (3 times, %)” value amounted to 109.44%; the “Stability, Room temperature (24 h, %)” value is reported as 101.86%. Besides, in series [2] (nominal level 128.00 nmol/L), the “Stability, 4 ℃ Refrigerator (3 day, %)” value is recorded as 100.64%; the “Stability, -20℃ freeze-thaw (3 times, %)” value is 113.69%; the “Stability, Room temperature (24 h, %)” value is 98.85%. This compound returned an IC50 at 30 min at CYP3A (microsomes, pH 7.4) of 0.99 ± 0.09 µM. Further, the IC50 on CYP3A4 was 0.8 ± 0.06 µM.
